Results as given in patent US8415391B2, “3.2.1-bicyclo-octene and -octane compounds” (International Flavors & Fragrances Inc., priority 2010, dated 2013).

What was measured:
Vapor pressure = type: physicochemical
[1] = Sweat malodor coverage, panel sniff test with isovaleric acid model; parameters: species or system human; details: compound 10% in solvent; 1 h equilibration in 8 oz jar; 15-18 panelists; scale 1 (No Coverage) to 5 (Excellent Coverage)
Protocol: (§1) It is known that the perspirative malodors of human body, particularly sweat, are associated with the production of several unpleasant smelling organic acids, particularly isovaleric acid (“IVA”). The commercial sample of this malodorous material (commercially available at Sigma-Aldrich Inc.) was thus used as a model compound to assess the effectiveness of sweat malodor counteractants. The mold/mildew malodor model was prepared based on applicant's proprietary formulations for assessing the effectiveness of mold/mildew malodor counteractants.
(§2) Two aluminum dishes were placed in an 8 oz glass jar. A malodor material was pipetted into one aluminum dish, and a compound of the present invention diluted in a solvent (10%) or a solvent alone control was pipetted into the other aluminum dish. The jar was then capped and the samples were allowed to equilibrate for one hour before the testing.
(§3) Test samples were presented in a blind and random order to 15-18 internal panelists (consisting of men/women with an age range of 25 to 55). However, different odor samples were arranged in an alternative order (for example, sweat, mold/mildew, sweat, mold/mildew, and etc.).
(§4) The panelists were instructed to take the steps of i) sniff jars containing only the malodor materials for familiarization prior to the testing; ii) uncap a jar; iii) place their noses at a distance of about 3-4 inches above the opening; iv) take short sniffs for 3 seconds; and v) provide a rank of the malodor coverage using an intensity scale of 1 to 5, where 1 represents “No Coverage”, 3 represents “Moderate Coverage”, and 5 represents “Excellent Coverage”. The means for each sample was then calculated.

[2] = Mold/mildew malodor coverage, panel sniff test with proprietary malodor model; parameters: species or system human; details: compound 10% in solvent; 1 h equilibration in 8 oz jar; 15-18 panelists; scale 1 (No Coverage) to 5 (Excellent Coverage)
Protocol: as §1, §2, §3, §4

| Structure (SMILES) | Vapor Pressure (Vapor pressure) [µg/L] | Sweat Malodor, mean rank of malodor coverage [1] | Mold/Mildew Malodor, mean rank of malodor coverage [2] |
| --- | --- | --- | --- |
| CC1=CCC2(C)CCC1C2 (stereo not drawn) [Structure I, 2,5-dimethyl-bicyclo[3.2.1]oct-2-ene] | 28652 | 3.90 | 3.32 |
| CC(=O)OC1CC2(C)CCC(C2)C1C (stereo not drawn) [Structure IV, acetic acid 1,4-dimethyl-bicyclo[3.2.1]oct-3-yl ester] | 1091 | 3.09 | 2.96 |
| COC(=O)OC1CC2(C)CCC(C2)C1C (stereo not drawn) [Structure V, carbonic acid 1,4-dimethyl-bicyclo[3.2.1]oct-3-yl ester methyl ester] | 406 | 2.42 | 2.49 |
